Source: patent US20130210779A1, “METHOD OF IDENTIFYING TRIPLE NEGATIVE BREAST CANCER” (The Washington University, priority 2012, published 2013)

Key:
[1] = test system: BOGA cells; assay: RAD51 IRIF formation by immunofluorescence; type: cell-based; conditions: vitamin D, 8 Gy
Method: (§1) Aliquots of 1 nmol calcitriol were resuspended in 1 mL of bovine growth serum (BGS) and diluted in DMEM with antibiotics and antimycotics to a final concentration of 10% BGS. BGS was used as the vehicle in control media. Treatment was carried out for 24 hours unless indicated otherwise. For determining the extent of genomic instability, cells were irradiated with 2 Gy and analysis of metaphase spreads was performed 24 hours post-irradiation. For assaying formation of IRIF, cells were irradiated with 8 Gy and fixed and processed for immunofluorescence 1 hour, 3 hours, or 6 hours post-irradiation as indicated. For comet assays, cells were irradiated with 8 Gy. Cells were plated on coverslips, irradiated with 8 Gy if indicated, and collected at the varying time intervals. Cells were fixed with 3.7% formaldehyde and 0.2% TritonX-100 in PBS for 10 minutes at RT, followed by 3 washes in PBS. After blocking in 1% BSA and 0.1% Triton X-100 in PBS for 1 hour at 37° C., cells were incubated with 53BP1 (NB100-304, Novus Biologicals) or RAD51 (sc-8349, Santa Cruz) antibodies for 1 hour at 37° C. Three washes in PBS were carried out followed by incubation for 1 hour at 37° C. with appropriate secondary antibodies. Final washes in PBS were carried out and cells were counterstained with DAPI and coverslips were mounted on slides using Vectashield (Vector Labs). […]

[2] = test system: BOGA cells; assay: Neutral comet assay, kinetics of DNA DSBs repair; type: cell-based; conditions: vitamin D 10−7 M 24 h preirradiation, 8 Gy
Method: (§2) For determining the extent of genomic instability, cells were irradiated with 2 Gy and analysis of metaphase spreads was performed 24 hours post-irradiation. For assaying formation of IRIF, cells were irradiated with 8 Gy and fixed and processed for immunofluorescence 1 hour, 3 hours, or 6 hours post-irradiation as indicated. For comet assays, cells were irradiated with 8 Gy.
Neutral comet assays were performed using CometSlide assay kits (Trevigen). […] Cells were embedded in agarose, lysed, and subjected to neutral single cell gel electrophoresis. The agarose was dehydrated and cells were stained with ethidium bromide to visualize under a fluorescence microscope. Olive comet moment was determined using the program CometScore Version 1.5 (TriTek). Olive moment was calculated by multiplying the percentage of DNA in the tail by the displacement between the means of the head and tail distributions as described (Olive et al., 1990). A total of 25-30 comets were analyzed per sample in each experiment.

[3] = test system: BOGA cells; assay: Analysis of aberrant chromosomes in metaphase spreads (genomic instability); type: cell-based
Method: (§3) Aliquots of 1 nmol calcitriol were resuspended in 1 mL of bovine growth serum (BGS) and diluted in DMEM with antibiotics and antimycotics to a final concentration of 10% BGS. BGS was used as the vehicle in control media. Treatment was carried out for 24 hours unless indicated otherwise.
(§4) Cells were incubated with the broad spectrum cathepsin inhibitor E-64 (E3132, Sigma-Aldrich) at a concentration of 10 μM. Water served as the vehicle in control media. Treatment was carried out for 24 hours unless indicated otherwise.
Cells were treated with the PARPi EB-47 (E8405, Sigma-Aldrich) at a concentration of 1.2 μg/mL for 48 hours. PARPi was dissolved in water, which was used as vehicle control.
as §2
Following all treatments, cells were arrested in mitosis by treatment with colcemid for 4 hours and metaphase spreads prepared by hypotonic swelling in 0.56% KCl, followed by fixation in 3:1 methanol:acetic acid. Cell suspensions were dropped onto slides and stained for 25 minutes in Wright-Giemsa Stain (9380-32, Ricca Chemical Company) and then washed in water. Slides were allowed to dry and were mounted using Eukitt Mounting Reagent and analyzed on an Olympus BX51 light microscope.

[4] = test system: BOGA cells; assay: 53BP1 IRIF formation by immunofluorescence; type: cell-based; conditions: BOGA cells (sh BRCA1), vitamin D 10−7 M from 24 hours prior to 8 Gy, fixed 6 hours post-IR
Method: as §1

[5] = test system: BOGA cells; assay: Western blot of protein levels in BOGA cells after treatment; type: cell-based
Method: MCF7 cells were a gift from J. Weber (Washington University, St. Louis, Mo.). Cells were maintained in DMEM (Cellgro) supplemented with 10% fetal bovine serum (Sigma-Aldrich), antibiotics, and antimycotics. Cells transduced with short hairpin RNAs (shRNAs) were maintained in selection media containing 0.5 mg/mL Geneticin G418 (Gibco) or 2 μg/mL puromycin (Invitrogen).
Cells were lysed in RIPA buffer (50 mM Tris-HCl pH 8.0, 150 mM NaCl, 1% NP-40, 0.5% sodium deoxycholate, 0.5% SDS) supplemented with PMSF, protease inhibitors, and DTT. Following sonication, 120 μg of total cell lysate was loaded into 4%-15% Tris-Gly gradient gels. Protein detection was carried out with the following antibodies: BRCA1 (sc-6954, Santa Cruz), 53BP1 (NB100-304, Novus Biologicals), cathepsin L (sc-6498, Santa Cruz), p107 (sc-318, Santa Cruz), RAD51 (sc-8349, Santa Cruz), RPA (NA18, Calbiochem), and β-Tubulin (T8328, Sigma-Aldrich).
as §3, §4

[6] = test system: BRCA1-deficient cells; conditions: cited from earlier work
[7] = BRCA1-deficient (BOGA) cells, E64 10 μM

With `C=C1/C(=C\C=C2/CCC[C@]3(C)[C@@H]([C@H](C)CCCC(C)(C)O)CC[C@@H]23)C[C@@H](O)C[C@@H]1O` [vitamin D, 1α,25-dihydroxyvitamin D3] the “% cells positive for RAD51 IRIF” value ([1]; 1 hour post-IR) was 35%, the “Extent of RAD51 IRIF at later times post-irradiation” value ([1]; 3 h post-IR) was “did not affect” and the “Kinetics of DNA DSBs repair (fast phase), Olive comet moment” value [2] was “rescues”. For the same compound, the “Extent of chromosomal aberrations in response to PARPi” value ([3]; vitamin D 10−7 M 24 h prior to and with PARPi EB-47 1.2 μg/mL 48 h) was “increase”, the “Percentage of metaphases with aberrant chromosomes after IR” value ([3]; vitamin D 24 h prior to 2 Gy, 24 h post-IR) was “significantly increased” and the “Genomic instability (metaphases with chromosomal aberrations), single agent” value ([3]; vitamin D alone, mock irradiation) was “modest increase”. For the same compound, the “% cells with 53BP1 foci” value [4] was 84%, the “% cells with 53BP1 foci” value ([4]; listed as vit D) was 84% and the “53BP1 protein levels (western blot)” value ([5]; BOGA cells, vitamin D 10−7 M) was “stabilizes”. The “p107 levels (control for inhibition of CTSL activity)” value ([5]; BOGA cells, vitamin D 10−7 M) was “stabilization”.

In the case of `CC(C)C[C@H](NC(=O)[C@H]1O[C@@H]1C(=O)O)C(=O)NCCCCN=C(N)N` [E64], the “Genomic instability after IR” value ([3]; E64 24 h prior to 2 Gy) is reported as “marked increase”, the “53BP1 protein levels (western blot)” value [5, 7] is reported as “increased levels” and the “CTSL levels (western blot)” value [5, 7] is reported as “without major changes”.

For `O=C(c1cc(Cc2n[nH]c(=O)c3ccccc23)ccc1F)N1CCCNCC1` [KU0058948], the “Clonogenic survival of BRCA1-deficient cells compared to cells expressing BRCA1” value [6] is listed as “clear reduction”.

In the case of `CNCc1ccc(-c2[nH]c3cc(F)cc4c3c2CCNC4=O)cc1` [AG014699], the “Clonogenic survival of BRCA1-deficient cells compared to cells expressing BRCA1” value [6] is listed as “clear reduction”.

For `Nc1ncnc2c1ncn2[C@@H]1O[C@H](C(=O)N2CCN(CC(=O)Nc3cccc4c3CNC4=O)CC2)[C@@H](O)[C@H]1O` [EB-47], the “Genomic instability (metaphases with chromosomal aberrations)” value ([3]; PARPi EB-47 1.2 μg/mL 48 h alone) was “does not result in profound genomic instability”.

For `O=C1CCC(=O)N1c1cc(Cc2n[nH]c(=O)c3ccccc23)ccc1F` [KU0058684], the “Clonogenic survival of BRCA1-deficient cells compared to cells expressing BRCA1” value [6] is given as “clear reduction”.
